{"source": "patent US20080280973A1", "about": "“Laulimalide Analogues as Therapeutic Agents” (priority 2004, published 2008)", "origin": "cited, not measured here", "key": {"[1]": {"system": "multi-drug resistant cell line SKVLB-1"}, "[2]": {"system": "KB, P388, A549, HT29 and MEL28 cell lines"}, "[3]": {"system": "HeLa cells, NCI/ADR cells, MDA-MB-435 cell line", "details": "relative to laulimalide; cell line not specified"}}, "data": [{"compound": "C=C1C[C@H](C)C[C@@H]2CC=C[C@@H](C/C=C\\C(=O)O[C@H]([C@@H](O)/C=C/[C@@H]3CC(C)=CCO3)C[C@@H]3O[C@H]3[C@@H](O)C1)O2", "note": "[Laulimalide, laulimalide]", "values": [{"measurement": "IC50", "setting": "[1]", "value": 1200, "unit": "nM"}, {"measurement": "anti-tumor potency range", "setting": "[2]", "value": "nanomolar range"}]}, {"compound": "C16-C17-des-epoxy laulimalide [des-epoxy analogue]", "values": [{"measurement": "fold less potent than laulimalide", "setting": "[3]", "value": "approximately 19 fold"}]}]}
